Experimental data published in PubChem BioAssay (NCI).
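Following 48 hours of exposure in 96-well plates, responses at five concentrations were used to interpolate endpoints linearly. TGI is the concentration that stops growth completely.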

What was measured:
Experiment in all cases: NCI tumour cell line growth inhibition, 48 h
MDA-MB-435 = tested on: MDA-MB-435
NCI/ADR-RES ovarian = tested on: NCI/ADR-RES ovarian
PC-3 prostate = tested on: PC-3 prostate
KM12 colon = tested on: KM12 colon
HCT-116 colon = tested on: HCT-116 colon
NCI-H23 lung = tested on: NCI-H23 lung
UACC-257 melanoma = tested on: UACC-257 melanoma
SN12C renal = tested on: SN12C renal
TK-10 renal = tested on: TK-10 renal
A549 NSCLC = tested on: A549 NSCLC
HL-60(TB) leukemia = tested on: HL-60(TB) leukemia
K-562 leukemia = tested on: K-562 leukemia
HOP-62 NSCLC = tested on: HOP-62 NSCLC
786-0 renal = tested on: 786-0 renal
SNB-75 CNS = tested on: SNB-75 CNS
LOX IMVI melanoma = tested on: LOX IMVI melanoma
MALME-3M melanoma = tested on: MALME-3M melanoma
OVCAR-4 ovarian = tested on: OVCAR-4 ovarian
M14 melanoma = tested on: M14 melanoma
SF-295 CNS = tested on: SF-295 CNS
NCI-H522 lung = tested on: NCI-H522 lung
MDA-MB-231 breast = tested on: MDA-MB-231 breast
RPMI-8226 leukemia = tested on: RPMI-8226 leukemia
SW-620 colon = tested on: SW-620 colon
HCT-15 colon = tested on: HCT-15 colon
SF-539 CNS = tested on: SF-539 CNS
RXF 393 renal = tested on: RXF 393 renal
UO-31 renal = tested on: UO-31 renal
SK-OV-3 ovarian = tested on: SK-OV-3 ovarian
EKVX NSCLC = tested on: EKVX NSCLC
HS 578T breast = tested on: HS 578T breast
OVCAR-8 ovarian = tested on: OVCAR-8 ovarian
OVCAR-3 ovarian = tested on: OVCAR-3 ovarian
SK-MEL-5 melanoma = tested on: SK-MEL-5 melanoma
CAKI-1 renal = tested on: CAKI-1 renal
MOLT-4 leukemia = tested on: MOLT-4 leukemia
ACHN renal = tested on: ACHN renal
U251 CNS = tested on: U251 CNS
COLO 205 colon = tested on: COLO 205 colon
NCI-H226 lung = tested on: NCI-H226 lung
MCF7 breast = tested on: MCF7 breast
OVCAR-5 ovarian = tested on: OVCAR-5 ovarian
SK-MEL-28 melanoma = tested on: SK-MEL-28 melanoma
SK-MEL-2 melanoma = tested on: SK-MEL-2 melanoma
MDA-N = tested on: MDA-N
HOP-92 NSCLC = tested on: HOP-92 NSCLC
A498 renal = tested on: A498 renal
SNB-19 CNS = tested on: SNB-19 CNS
SF-268 CNS = tested on: SF-268 CNS
IGROV1 ovarian = tested on: IGROV1 ovarian
HT29 colon = tested on: HT29 colon
T-47D breast = tested on: T-47D breast
DU-145 prostate = tested on: DU-145 prostate
CCRF-CEM leukemia = tested on: CCRF-CEM leukemia
HCC-2998 colon = tested on: HCC-2998 colon
SR leukemia = tested on: SR leukemia
UACC-62 melanoma = tested on: UACC-62 melanoma

## O=C1NC(N2CCOCC2)=N/C1=C\c1ccccc1O
MDA-MB-435
  TGI: > 100 µM
NCI/ADR-RES ovarian
  TGI: > 100 µM
PC-3 prostate
  TGI: > 100 µM
KM12 colon
  TGI: > 100 µM
HCT-116 colon
  TGI: > 100 µM
NCI-H23 lung
  TGI: > 100 µM
UACC-257 melanoma
  TGI: > 100 µM
SN12C renal
  TGI: > 100 µM
TK-10 renal
  TGI: > 100 µM
A549 NSCLC
  TGI: > 100 µM
HL-60(TB) leukemia
  TGI: > 100 µM
K-562 leukemia
  TGI: > 100 µM
HOP-62 NSCLC
  TGI: > 100 µM
786-0 renal
  TGI: > 100 µM
SNB-75 CNS
  TGI: > 100 µM
LOX IMVI melanoma
  TGI: > 100 µM
MALME-3M melanoma
  TGI: > 100 µM
OVCAR-4 ovarian
  TGI: > 100 µM
M14 melanoma
  TGI: > 100 µM
SF-295 CNS
  TGI: > 100 µM
NCI-H522 lung
  TGI: > 100 µM
MDA-MB-231 breast
  TGI: > 100 µM
RPMI-8226 leukemia
  TGI: > 100 µM
SW-620 colon
  TGI: > 100 µM
HCT-15 colon
  TGI: > 100 µM
SF-539 CNS
  TGI: > 100 µM
RXF 393 renal
  TGI: > 100 µM
UO-31 renal
  TGI: > 100 µM
SK-OV-3 ovarian
  TGI: > 100 µM
EKVX NSCLC
  TGI: > 100 µM
HS 578T breast
  TGI: > 100 µM
OVCAR-8 ovarian
  TGI: > 100 µM
OVCAR-3 ovarian
  TGI: > 100 µM
SK-MEL-5 melanoma
  TGI: > 100 µM
CAKI-1 renal
  TGI: > 100 µM
MOLT-4 leukemia
  TGI: > 100 µM
ACHN renal
  TGI: > 100 µM
U251 CNS
  TGI: > 100 µM
COLO 205 colon
  TGI: > 100 µM
NCI-H226 lung
  TGI: > 100 µM
MCF7 breast
  TGI: > 100 µM
OVCAR-5 ovarian
  TGI: > 100 µM
SK-MEL-28 melanoma
  TGI: > 100 µM
SK-MEL-2 melanoma
  TGI: > 100 µM
MDA-N
  TGI: > 100 µM
HOP-92 NSCLC
  TGI: > 100 µM
A498 renal
  TGI: > 100 µM
SNB-19 CNS
  TGI: > 100 µM
SF-268 CNS
  TGI: > 100 µM
IGROV1 ovarian
  TGI: > 100 µM
HT29 colon
  TGI: > 100 µM
T-47D breast
  TGI: > 100 µM
DU-145 prostate
  TGI: > 100 µM
CCRF-CEM leukemia
  TGI: > 100 µM

## C/C(=C\CCC1=CC(=O)OC1)CC[C@@H]1[C@H]2C(=O)CC(C)[C@@]3(C)CC[C@]1(C)[C@@]23C (some centres undefined)
PC-3 prostate
  TGI: > 10 µM
KM12 colon
  TGI: > 10 µM
NCI-H23 lung
  TGI: > 10 µM
UACC-257 melanoma
  TGI: > 10 µM
SN12C renal
  TGI: > 10 µM
TK-10 renal
  TGI: > 10 µM
HCC-2998 colon
  TGI: > 10 µM
A549 NSCLC
  TGI: > 10 µM
HL-60(TB) leukemia
  TGI: > 10 µM
K-562 leukemia
  TGI: > 10 µM
HOP-62 NSCLC
  TGI: > 10 µM
786-0 renal
  TGI: > 10 µM
SNB-75 CNS
  TGI: > 10 µM
LOX IMVI melanoma
  TGI: > 10 µM
SR leukemia
  TGI: > 10 µM
MALME-3M melanoma
  TGI: > 10 µM
M14 melanoma
  TGI: > 10 µM
SF-295 CNS
  TGI: > 10 µM
MDA-MB-231 breast
  TGI: > 10 µM
RPMI-8226 leukemia
  TGI: > 10 µM
SW-620 colon
  TGI: > 10 µM
HCT-15 colon
  TGI: > 10 µM
RXF 393 renal
  TGI: > 10 µM
SK-OV-3 ovarian
  TGI: > 10 µM
EKVX NSCLC
  TGI: > 10 µM
UACC-62 melanoma
  TGI: > 10 µM
OVCAR-8 ovarian
  TGI: > 10 µM
SK-MEL-5 melanoma
  TGI: > 10 µM
CAKI-1 renal
  TGI: > 10 µM
MOLT-4 leukemia
  TGI: > 10 µM
COLO 205 colon
  TGI: > 10 µM
MCF7 breast
  TGI: > 10 µM
SK-MEL-28 melanoma
  TGI: > 10 µM
MDA-N
  TGI: > 10 µM
SF-268 CNS
  TGI: > 10 µM
IGROV1 ovarian
  TGI: > 10 µM
HT29 colon
  TGI: > 10 µM
T-47D breast
  TGI: > 10 µM
DU-145 prostate
  TGI: > 10 µM
CCRF-CEM leukemia
  TGI: > 10 µM
